Measurements taken from ChEMBL document CHEMBL5344416, “Phenothiazines as anti-cancer agents: SAR overview and synthetic strategies” (Eur J Med Chem, 2023).
One block for each molecule: values may come before it.

How the values were obtained:
[1] = system: MCF7; assay: Anticancer activity against human MCF7 cells assessed as cell growth inhibition incubated for 48 hrs by MTT assay; type: functional, cell-based; conditions: MCF7, 48 h
[2] = system: MCF7; assay: Antitumor activity against human MCF7 cells assessed as inhibition of cell growth at 1000 ug measured after 48 hrs by spectrophotometric analysis relative to control; type: functional; parameters: scale not given: the % may be the effect or the level left; conditions: dose 1000 µg
[3] = system: MCF7; assay: Antitumor activity against human MCF7 cells assessed as increase in LDH level at 1000 ug relative to control; type: functional; conditions: dose 1000 µg
[4] = system: SNB-19; assay: Antiproliferative activity against human SNB-19 cells assessed as reduction in cell proliferation incubated for 72 hrs by WST-1 assay; type: functional, cell-based; conditions: SNB-19, 72 h
[5] = system: MDA-MB-231; assay: Antiproliferative activity against human MDA-MB-231 cells assessed as reduction in cell proliferation incubated for 72 hrs by WST-1 assay; type: functional, cell-based; conditions: MDA-MB-231, 72 h
[6] = system: TC-32; assay: Antiproliferative activity against human TC-32 cells assessed as reduction in cell proliferation incubated for 72 hrs by WST-1 assay; type: functional, cell-based; conditions: TC-32, 72 h
[7] = system: MDA-MB-231; assay: Anticancer activity against human MDA-MB-231 cells assessed as reduction in cell viability measured after 72 hrs by MTT assay; type: functional, cell-based; conditions: MDA-MB-231, 72 h
[8] = system: TC-32; assay: Anticancer activity against human TC-32 cells assessed as reduction in cell growth incubated for 48 hrs by SRB assay; type: functional, cell-based; conditions: TC-32, 48 h
[9] = system: SNB-19; assay: Anticancer activity against human SNB-19 cells assessed as reduction in cell growth incubated for 48 hrs by SRB assay; type: functional, cell-based; conditions: SNB-19, 48 h
[10] = system: TC-32; assay: Cytotoxicity against human TC-32 cells assessed as reduction in cell viability; type: functional, cell-based
[11] = Cytotoxicity against human HFF-1 cells assessed as reduction of cell viability incubated for 72 hrs by CCK-8 assay; type: toxicity, cell-based
[12] = system: SNB-19; assay: Anticancer activity against human SNB-19 cells assessed as reduction in cell growth by SRB assay; type: functional, cell-based
[13] = system: MCF7; assay: Cytotoxicity against human MCF7 cells assessed as reduction in cell growth; type: functional, cell-based
[14] = system: CWR22R; assay: Antiproliferative activity against human 22Rv1 cells assessed as cell viability incubated for 96 hrs by Cell-Titer Glo assay; type: functional, cell-based; conditions: 22Rv1, 96 h
[15] = system: RAW264.7; assay: Cytotoxicity against mouse RAW264.7 cells assessed as reduction in cell viability incubated for 72 hrs; type: functional, cell-based; conditions: RAW264.7, 72 h
[16] = system: NHDF; assay: Cytotoxicity against human NHDF cells assessed as reduction in cell viability incubated for 72 hrs by WST-1 assay; type: functional, cell-based
[17] = system: SNB-19; assay: Anticancer activity against human SNB-19 cells assessed as reduction in cell proliferation incubated for 72 hrs by WST-1 assay; type: functional, cell-based; conditions: SNB-19, 72 h
[18] = system: Caco-2; assay: Cytotoxicity against human Caco-2 cells assessed as reduction in cell proliferation incubated for 72 hrs by WST-1 assay; type: functional, cell-based; conditions: Caco-2, 72 h
[19] = system: A549; assay: Antiproliferative activity against human A549 cells assessed as reduction in cell viability incubated for 72 hrs by WST-1 assay; type: functional, cell-based; conditions: A549, 72 h
[20] = system: MDA-MB-231; assay: Antiproliferative activity against human MDA-MB-231 cells assessed as reduction in cell viability incubated for 72 hrs by WST-1 assay; type: functional, cell-based; conditions: MDA-MB-231, 72 h
[21] = system: HSC-3; assay: Cytotoxicity against human HSC-3 cells assessed as reduction in cell viability incubated for 48 hrs by MTT assay; type: functional
[22] = system: HSC-4; assay: Cytotoxicity against human HSC-4 cells assessed as reduction in cell viability incubated for 48 hrs by MTT assay; type: functional
[23] = system: HSC-2; assay: Cytotoxicity against human HSC-2 cells assessed as reduction in cell viability measured after 48 hrs by MTT assay; type: functional
[24] = Cytotoxicity against human Lovo/DX cells assessed as reduction in cell viability incubated for 72 hrs by MTT assay; type: functional
[25] = system: LoVo; assay: Cytotoxicity against human LoVo cells assessed as reduction in cell viability incubated for 72 hrs by MTT assay; type: functional
[26] = Antiproliferative activity against human Lovo/DX cells assessed as reduction in cell viability; type: functional, cell-based
[27] = system: LoVo; assay: Antiproliferative activity against human LoVo cells assessed as reduction in cell viability incubated for 48 hrs by MTT assay; type: functional, cell-based
[28] = system: MCF7; assay: Cytotoxicity against human MCF7 cells assessed as reduction in cell viability by MTT assay; type: functional, cell-based
[29] = Antioxidant activity assessed as DPPH radical scavenging activity; type: functional
[30] = Antioxidant activity assessed as ABTS radical scavenging activity; type: functional
[31] = system: CT26; assay: Antitumor activity against mouse CT26 cells assessed as reduction in cell viability incubated for 4 hrs by MTT assay; type: functional, cell-based; conditions: CT26, 4 h
[32] = system: CT26; assay: Antitumor activity against mouse CT26 cells assessed as tumor growth inhibition incubated for 4 hrs by MTT assay relative to control; type: functional; parameters: scale not given: the % may be the effect or the level left
[33] = system: HepG2; assay: Cytotoxicity against human HepG2 cells assessed as reduction in cell viability incubated for 48 hrs by MTT assay; type: functional, cell-based; conditions: HepG2, 48 h
[34] = system: MCF7; assay: Cytotoxicity against human MCF7 cells assessed as cell growth inhibition measured after 48 hrs by MTT assay; type: functional, cell-based; conditions: MCF7, 48 h
[35] = system: TC-32; assay: Cytotoxicity against human TC-32 cells assessed as reduction in cell viability incubated for 48 hrs by CellTiter-Blue reagent based […] assay; type: functional; conditions: TC-32, 48 h
[36] = system: SNB-19; assay: Antiproliferative activity against human SNB-19 cells assessed as cell growth inhibition incubated for 72 hrs by WST-1 assay; type: functional, cell-based; conditions: SNB-19, 72 h
[37] = system: T47D; assay: Antiproliferative activity against human T47D cells assessed as cell growth inhibition after 48 hrs by SRB assay; type: functional, cell-based

SMILES: CN1c2ccccc2Sc2cc(/C=N/NC(=O)Cn3c4ccccc4c4ccccc43)ccc21
- Activity [2]: 48%
- Activity [3]: 48%

SMILES: O=C(Nc1ccc(OCCCN2CCNCC2)cc1)N1c2ccccc2Sc2ccccc21
- IC50 [14]: 13.5 µM
- IC50 [15]: 60.1 µM

SMILES: CN1c2ccccc2Sc2cc(/C=C/C(=O)c3ccccc3)ccc21
- Activity [2]: 21%
- Activity [3]: 64%

SMILES: COc1cc(OC)c(OC)cc1/C=C/C(=O)c1ccc2c(c1)Nc1ccccc1S2
- CC50 [21]: 311 µM
- CC50 [22]: 8 µM
- CC50 [23]: 4.9 µM

SMILES: C/C(=N\c1ccc(/N=N/c2ccccc2)cc1)c1ccc2c(c1)Nc1ccccc1S2
- IC50 [28]: 34.6 µM
- IC50 [29]: 37.3 µM
- IC50 [30]: 41.1 µM

SMILES: C#CCN1c2ncccc2Sc2cccnc21
- IC50 [4]: 3.85 µM
- IC50 [5]: 14.1 µM
- IC50 [6]: 3.37 µM

SMILES: COCCOCCOCCOCCOCCOCCOCCOCCOCCOCCOCCOCCN1c2ccccc2Sc2ccccc21
- IC50 [31]: 344 µM
- Activity [32]: 92%

SMILES: CCCCCCCCCCCCN1c2ccccc2Sc2ccc(C(=O)/C=C/c3cc(OC)c(OC)c(OC)c3)cc21
- IC50 [33]: 7.6 µM
- IC50 [34]: 12 µM

More lines, main results first:

- IC50 [1]: 1.35 µM
SMILES: CSc1ccc2c(c1)N(CCCn1ccc(=O)[nH]c1=O)c1ccccc1S2

- IC50 [5]: 2.13 µM
SMILES: CCN(CC)CCN1c2ncccc2Sc2cccnc21
- IC50 [4]: 0.33 µM
- IC50 [6]: 14.4 µM

- IC50 [7]: 0.74 µM
SMILES: C(#CCN1c2ccncc2Sc2ncccc21)CN1CCN(c2ccccc2)CC1
- IC50 [8]: 4.57 µM
- IC50 [9]: 0.45 µM

- IC50 [1]: 8.3 µM
SMILES: c1cnc2c(c1)Nc1ccncc1S2
- IC50 [10]: 0.72 µM
- IC50 at 72 h [11]: 38.6 µM
- IC50 [12]: 0.58 µM
- IC50 [13]: 0.46 µM

- IC50 [19]: 0.25 µM
- IC50 [20]: 0.51 µM
SMILES: Clc1ccc(Cn2cc(CN3c4cccnc4Sc4cccnc43)nn2)cc1
- IC50 [16]: > 100 µM
- IC50 [17]: 4.66 µM
- IC50 [18]: 0.25 µM

- IC50 [27]: 50 µM
SMILES: CN(CCO)CC(O)CN1c2ccccc2Sc2ccc(C(F)(F)F)cc21 (configuration not stated)
- IC20 [24]: 8 µM
- IC20 [25]: 12 µM
- IC50 [26]: 42 µM

- IC50 [37]: 9.6 µM
SMILES: CN1CCN(CC#CCN2c3ccncc3Sc3ccncc32)CC1
- IC50 [35]: 35 µM
- IC50 [36]: 21.2 µM

- IC50 [27]: 50 µM
SMILES: OCCOCCN1CCN(CC(O)CN2c3ccccc3Sc3ccc(C(F)(F)F)cc32)CC1 (configuration not stated)
- IC20 [24]: 4 µM
- IC20 [25]: 6 µM
- IC50 [26]: 20 µM
